Measured values as given in US20240423972A1, “CHEMOTHERAPEUTIC BIOADHESIVE PARTICLES WITH IMMUNOSTIMULATORY MOLECULES FOR CANCER TREATMENT” (priority 2021, published 2024).

Key:
PDVC57 tumors [1] = assay: In vivo assessment of CPT NP efficacy; settings: single dose of 0.25 mg of CPT by intratumoral injection
Procedure: (§1) All animal procedures were conducted in accordance with Yale Institutional Animal Care and Use Committee guidelines. Mice were housed in the Yale Animal Resource Center and afforded free access to food and water. Wild-type C57BL/6J mice were obtained from The Jackson Laboratory. To prepare the animals for tumor transplantation, the dorsal right flank was shaved using electric clippers. PDVC57 cells were harvested, washed, and resuspended in 1×PBS on ice at a concentration of 5.0×10^7 cells per mL. Mice were then anesthetized in an induction chamber with […] in propylene glycol and the dorsal right flank injected intradermally/subcutaneously with 5.0×10^6 cells in 100 μl using a 27-gauge syringe, forming a small bleb at the site of injection.
PDVC57 tumors were induced as described above. When tumors attained a diameter of approximately 5 mm, they were injected with either blank BNPs (1.99 mg/50 μL of PBS), IL-CPT (0.25 mg of CPT/50 μL), NNP-CPT (0.25 mg of CPT/50 μL of PBS), or BNP-CPT (0.25 mg of CPT/50 μL of PBS) using a 27-gauge needle, which was positioned in the center of the tumor. The entire treatment volume was administered intratumorally over 15 s. The needle was then held in this position for 10 s and withdrawn slowly in order to prevent leakage of drug from the injection site.

PDVC57 cells = assay: Control cytotoxicity assay: solutions not aspirated before addition of cells; type: cell-based, murine
Procedure: After 48 hours, cell viability was assessed using Cell-Titer Glo. (8D) PDVC7 cells were harvested and seeded on a 96-well plate (5000 cells/well). […] FIG. 8B is a control for assay (8A) in which there is no poly-l-lysine attached to the plate.
A simulated, protein-rich tumor matrix was created by coating a 96 wellplate with 0.01% poly-l-lysine in 1×PBS. […] […] After 48 hours, cell viability was assessed using Cell-Titer Glo. PDVC7 cells were harvested and seeded on a 96-well plate (5000 cells/well). […] After 48 hours, cell viability was assessed using Cell-Titer Glo. A control for assay in which the poly-l-lysine coated plates are incubated with blank (unloaded) NP, free CPT, NNP-CPT or BNP-CPT, but these solutions are not aspirated before the addition of PDVC57 cells.

PDVC57 tumors [2] = assay: Intratumoral CPT retention (CPT recovered from tumors); type: in vivo, C57BL/6J mice; settings: 240 h (10 days) after intratumoral injection, 0.25 mg CPT
Procedure: as §1
When tumors reached a diameter of about 5 mm, they were treated with either free CPT (0.25 mg of CPT/50 μL of intralipid), NNP-CPT (0.25 mg of CPT/50 μL of PBS), or BNP-CPT (0.25 mg of CPT/50 μL of PBS). Following injection, tumors were harvested and lyophilized at 0, 48, and 240 h. […] The homogenate was centrifuged at 10,000×g for 5 min to pellet residual tumor and debris, the supernatant removed, and CPT quantified using its intrinsic fluorescence as described above.

Compound: CC[C@@]1(O)C(=O)OCc2c1cc1n(c2=O)Cc2cc3ccccc3nc2-1 [free CPT, Camptothecin]
- Systemic toxicity in pilot studies (PDVC57 tumors [1]): without clinical evidence of systemic toxicity
- Killing of PDVC57 (viability) (PDVC57 cells): comparable killing
- percentage of the injected CPT recovered from tumors (PDVC57 tumors [2]): undetectable
